According to patent US10420744B2, “Composition of chlorogenic acid and methods of making and using the same in treating serum lipid levels” (Vidya Herbs, Inc., priority 2014, dated 2019):
Marks after values point to notes of the source that are not given here.

System: high fat diet fed rats
Assay: Anti-obesity activity, high fat diet in rats
Assay type: in vivo, Wistar rats
Settings: Group III: high fat diet + orlistat 30 mg/kg
Protocol: Objective: The objective was to investigate the effect of the CGA-7 complex against high fat diet fed rats. Model: High fat diet in rats […] Male Wistar rats were divided into six groups with six animals in each group. [table] Body weight was measured once every 2 days. Food intake was measured daily for 42 days. On day 43, all the animals were kept overnight fasting before sacrifice. Blood was collected by puncturing the retro orbital plexus. Serum was separated by centrifugation at 3000 rpm for 10 minutes. Serum was estimated for glucose, cholesterol, triglycerides and HDL. LDL and atherogenic index were also calculated. Liver, mesenteric, brown adipose tissue (BAT), left and right perirenal fat pads, left and right epididymal pads were isolated and weighed. Liver was isolated and estimated for liver triglycerides and cholesterol levels.

Compound: CCCCCCCCCCC[C@@H](C[C@@H]1OC(=O)[C@H]1CCCCCC)OC(=O)[C@H](CC(C)C)NC=O [orlistat, Orlistat]
- liver cholesterol: 49.66 ± 3.28***^b
- liver triglycerides: 64.64 ± 3.44***^b
- Average food intake (42 days): 8.54 ± 0.40^nsb g/rat
- BAT (42 days): 0.19 ± 0.01**^b
- Difference in body weight (42 days): 88.01 ± 3.68***^b
- Epididymal fat pad Left (42 days): 0.50 ± 0.01**^b
- Epididymal fat pad Right (42 days): 0.48 ± 0.01*^b
- Liver organ weight (42 days): 3.47 ± 0.11***^b
- Mesenteric fat (42 days): 0.98 ± 0.03*^b
- Peri renal fat pad tissue Left (42 days): 0.61 ± 0.05*^b
- Peri renal fat pad tissue Right (42 days): 0.65 ± 0.04*^b
- Initial weight (baseline, in g (unit assumed)): 130.3 ± 0.56
- Atherogenic Index (calculated): 2.20 ± 0.20***^b
- serum Glucose (day 43): 109.7 ± 3.93**^b mg/dL
- serum HDL-c (day 43): 20.47 ± 1.08*^b mg/dL
- serum Total cholesterol (day 43): 63.38 ± 0.95***^b mg/dL
- serum Triglyceride (day 43): 77.63 ± 4.27***^b mg/dL
- serum LDL-c (day 43, calculated): 27.39 ± 1.07^nsb mg/dL
- Final weight (male Wistar rats, 42 days, in g (unit assumed)): 218.4 ± 2.65
